Structures are written as SMILES.

This passage reports IC50, AUC(0-t) and Cmax results from ChEMBL document CHEMBL1152369, “Unsymmetrical non-adamantyl N,N'-diaryl urea and amide inhibitors of soluble expoxide hydrolase” (Bioorg Med Chem Lett, 2009).

The target of data set [1] is T1, Bifunctional epoxide hydrolase 2 (Homo sapiens, UniProt P34913).
T1 sequence (P34913 whole entry): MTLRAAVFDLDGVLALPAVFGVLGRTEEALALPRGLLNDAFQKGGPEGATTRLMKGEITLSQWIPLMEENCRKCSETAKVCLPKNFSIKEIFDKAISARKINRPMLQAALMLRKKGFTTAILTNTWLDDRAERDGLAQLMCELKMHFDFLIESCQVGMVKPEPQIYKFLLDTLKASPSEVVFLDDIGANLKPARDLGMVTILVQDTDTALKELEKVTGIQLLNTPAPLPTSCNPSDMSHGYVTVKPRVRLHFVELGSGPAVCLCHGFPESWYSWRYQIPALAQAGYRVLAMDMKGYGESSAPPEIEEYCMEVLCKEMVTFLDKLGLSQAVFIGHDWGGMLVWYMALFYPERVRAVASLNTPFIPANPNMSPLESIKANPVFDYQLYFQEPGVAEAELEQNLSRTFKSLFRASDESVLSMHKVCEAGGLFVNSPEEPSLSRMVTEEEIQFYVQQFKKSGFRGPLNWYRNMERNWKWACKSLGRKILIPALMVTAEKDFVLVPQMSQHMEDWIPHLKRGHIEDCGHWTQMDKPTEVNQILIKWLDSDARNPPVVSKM
As to the kind of experiment: Inhibition of human soluble epoxide hydrolase by fluorescent endpoint assay.

Data set [2] in a line: AUC (0 to 24 hrs) in Sprague-Dawley rat at 5 mg/kg, po by LC/MS/MS analysis. In kind it is ADME, organism-based. Further details: time < 24 hr, dose 5 mg/kg, route oral. The settings on record: plasma.
Data set [3] can be described thus: Cmax in Sprague-Dawley rat at 5 mg/kg, po by LC/MS/MS analysis. In kind it is ADME, organism-based. Set-up: dose 5 mg/kg, route oral. The settings on record: in vivo.

On to `O=C(Cc1cccnc1)Nc1cccc(OCCCN2CCOCC2)c1`, for which the IC50 (as a rule, the concentration that inhibits the measured activity by half) in data set [1] came out at 14000 nM.

`O=C(Cc1ccc(C(F)(F)F)cc1)Nc1ccc(OCCCN2CCOCC2)cc1` showed an IC50 in data set [1] of 54 nM.

Turning to `O=C(Nc1cccc(OCCCN2CCOCC2)c1)Nc1cccc(C(F)(F)F)c1`, the IC50 in data set [1] was 13.8 nM.

For `O=C(Nc1ccc(C(F)(F)F)cc1)Nc1cccc(OCCCN2CCOCC2)c1`, the IC50 in data set [1] is 1 nM. Further, the AUC(0-t) (as a rule, the area under the concentration-time curve up to a stated or last time point) at 24 h in data set [2] came out at 8 ng·h/mL. For the same compound, in data set [3], the Cmax (in general, the highest concentration seen after dosing) was 5 ng/mL.

`O=C(Nc1ccc(OC(F)(F)F)cc1)Nc1cccc(OCCCN2CCOCC2)c1` registered an IC50 in data set [1] of 8 nM.

As for `O=C(Cc1ccc(OC(F)(F)F)cc1)Nc1ccc(F)c(OCCCN2CCOCC2)c1`, the IC50 in data set [1] was found to be 145 nM.

In the case of `O=C(Nc1ccc(OC(F)(F)F)cc1)Nc1ccc(F)c(OCCCN2CCOCC2)c1`, half-maximal inhibition in data set [1] (IC50) was put at 0.8 nM.

In turn, `O=C(Nc1ccccc1)Nc1ccc(F)c(OCCCN2CCOCC2)c1` had an IC50 in data set [1] of 81 nM.

Regarding `O=C(Cc1ccc(F)c(F)c1)Nc1cccc(OCCCN2CCOCC2)c1`, half-maximal inhibition in data set [1] (IC50) was put at 321 nM.

For the compound `O=C(Cc1ccc(Cl)cc1)Nc1ccc(OCCCN2CCOCC2)cc1`, in data set [1], half-maximal inhibition (IC50) required 140 nM.

In turn, `CC(C)(C)NC(=O)Nc1cccc(OCCCN2CCOCC2)c1` returned an IC50 in data set [1] of 1040 nM.

In data set [1], `O=C(Cc1ccc(OC(F)(F)F)cc1)Nc1ccc(OCCCN2CCOCC2)cc1` came in with an IC50 of 42 nM.

As for `O=C(Cc1ccc(F)cc1)Nc1cccc(OCCCN2CCOCC2)c1`, the IC50 in data set [1] came out at 550 nM. Besides, the AUC(0-t) at 24 h in data set [2] amounted to 57 ng·h/mL. Also, in data set [3], the Cmax came out at 48 ng/mL.

For `O=C(Nc1cccc(OCCCN2CCOCC2)c1)Nc1c(Cl)cccc1Cl`, the IC50 in data set [1] is 10000 nM.

In the case of `O=C(Cc1ccc(C(F)(F)F)cc1)Nc1ccc(F)c(OCCCN2CCOCC2)c1`, in data set [1], 156 nM corresponded to half-maximal inhibition (IC50).

The compound `O=C(Nc1ccc(F)cc1)Nc1ccc(F)c(OCCCN2CCOCC2)c1` gave an IC50 in data set [1] of 40 nM.

Turning to `O=C(Nc1ccc(OCCCN2CCOCC2)cc1)Nc1ccc(C(F)(F)F)cc1`, the IC50 in data set [1] was 0.8 nM. Also, the AUC(0-t) at 24 h in data set [2] was 1050 ng·h/mL. This compound gave a Cmax in data set [3] of 263 ng/mL.

Regarding `O=C(Nc1ccc(Cl)cc1)Nc1ccc(F)c(OCCCN2CCOCC2)c1`, the IC50 in data set [1] is 4.8 nM.

In the case of `O=C(Nc1cccc(OCCCN2CCOCC2)c1)Nc1ccc(F)cc1F`, in data set [1], the IC50 came to 121 nM.

On to `O=C(Cc1ccc2c(c1)OCO2)Nc1cccc(OCCCN2CCOCC2)c1`, for which 365 nM corresponded to half-maximal inhibition in data set [1] (IC50).

In data set [1], `O=C(Nc1ccc(F)cc1)Nc1cccc(OCCCN2CCOCC2)c1` showed an IC50 of 14 nM. Moreover, the AUC(0-t) at 24 h in data set [2] is 491 ng·h/mL. The compound also displayed a Cmax in data set [3] of 123 ng/mL.

`O=C(Cc1ccc(Cl)cc1)Nc1cccc(OCCCN2CCOCC2)c1` gave an IC50 in data set [1] of 116 nM.

`O=C(Nc1ccc(F)c(OCCCN2CCOCC2)c1)NC1CCCCC1` had an IC50 in data set [1] of 6.5 nM.

For `O=C(Nc1ccc(Cl)cc1)Nc1cccc(OCCCN2CCOCC2)c1`, in data set [1], half-maximal inhibition (IC50) required 2 nM. Besides, in data set [2], the AUC(0-t) at 24 h came out at 9 ng·h/mL. Besides, in data set [3], the Cmax amounted to 6 ng/mL.

In data set [1], `O=C(CC12CC3CC(CC(C3)C1)C2)Nc1ccc(OCCCN2CCOCC2)cc1` showed an IC50 of 1.3 nM.

The compound `O=C(CC12CC3CC(CC(C3)C1)C2)NC1CCCC(OCCCN2CCOCC2)C1` (stereo not drawn) displayed an IC50 in data set [1] of 5.2 nM.

`O=C(Nc1ccc(OCCCN2CCOCC2)cc1)Nc1ccc(OC(F)(F)F)cc1` gave a half-maximal inhibitory concentration (IC50) in data set [1] of 0.8 nM.

In the case of `O=C(NC1CCCC(OCCCN2CCOCC2)C1)NC12CC3CC(CC(C3)C1)C2` (stereo not drawn), the IC50 in data set [1] was 2.5 nM.

In data set [1], `O=C(Nc1cccc(OCCCN2CCOCC2)c1)Nc1ccc(F)c(F)c1` yielded an IC50 of 11 nM. This compound registered an AUC(0-t) at 24 h in data set [2] of 3 ng·h/mL. For the same compound, the Cmax in data set [3] was 3 ng/mL.

In data set [1], `O=C(Nc1ccc(OCCCN2CCOCC2)cc1)NC1CCCCC1` showed an IC50 of 5.4 nM. Besides, the AUC(0-t) at 24 h in data set [2] was determined as 863 ng·h/mL. In data set [3], the Cmax came to 669 ng/mL.

As for `CC(C)(C)CC(=O)Nc1cccc(OCCCN2CCOCC2)c1`, the IC50 in data set [1] amounted to 1550 nM.

`O=C(Cc1ccc(OC(F)(F)F)cc1)Nc1cccc(OCCCN2CCOCC2)c1` displayed an IC50 in data set [1] of 43 nM.

`CN(C)c1cccc(NC(=O)Nc2cccc(OCCCN3CCOCC3)c2)c1` yielded an IC50 in data set [1] of 240 nM.

For the compound `O=C(Nc1ccccc1)Nc1ccc(OCCCN2CCOCC2)cc1`, 39 nM corresponded to half-maximal inhibition in data set [1] (IC50).

Regarding `O=C(Nc1ccc(C(F)(F)F)cc1)Nc1ccc(F)c(OCCCN2CCOCC2)c1`, in data set [1], the IC50 was found to be 1.3 nM.

The compound `O=C(Nc1ccc(F)c(OCCCN2CCOCC2)c1)NC12CC3CC(CC(C3)C1)C2` yielded an IC50 in data set [1] of 0.8 nM.

Take `O=C(Nc1cccc(OCCCN2CCOCC2)c1)NC1CCCCC1`: the area under the curve AUC(0-t) at 24 h in data set [2] was found to be 131 ng·h/mL. The same compound came in with a peak concentration (Cmax) in data set [3] of 102 ng/mL.

In data set [1], `O=C(Nc1ccccc1)Nc1cccc(OCCCN2CCOCC2)c1` came in with a concentration for half-maximal inhibition (IC50) of 38 nM. Besides, in data set [2], the AUC(0-t) at 24 h turned out to be 3570 ng·h/mL. Further, the concentration in data set [3] peaked (Cmax) at 1570 ng/mL.

Take `O=C(Cc1ccccc1)Nc1ccc(OCCCN2CCOCC2)cc1`: in data set [1], it took 870 nM to reach half-maximal inhibition (IC50).

In turn, `O=C(CC12CC3CC(CC(C3)C1)C2)Nc1ccc(F)c(OCCCN2CCOCC2)c1` had an IC50 in data set [1] of 6.6 nM.

With `O=C(Nc1ccc(Cl)cc1)Nc1ccc(OCCCN2CCOCC2)cc1`, the half-maximal inhibitory concentration (IC50) in data set [1] was determined as 1.5 nM.

In turn, `O=C(Nc1cccc(OCCCN2CCOCC2)c1)Nc1ccc2c(c1)OCO2` registered an IC50 in data set [1] of 33 nM. Further, in data set [2], the AUC(0-t) at 24 h was determined as 753 ng·h/mL. Besides, the Cmax in data set [3] was determined as 218 ng/mL.

In data set [1], `O=C(Nc1cccnc1)Nc1cccc(OCCCN2CCOCC2)c1` showed an IC50 of 5000 nM.

With `O=C(Nc1cccc(OCCCN2CCOCC2)c1)Nc1c(F)cc(F)cc1F`, the IC50 in data set [1] came out at 1880 nM.
